Data: paper PMC5958115, “A novel small molecule chaperone of rod opsin and its potential therapy for retinal degeneration” (Nature Communications, 2018)

Columns and labels:
[1] = system: Abca4−/−Rdh8−/− mice; test: Bright light-induced retinal degeneration (SD-OCT, HE staining); format: in vivo, mouse; conditions: 50 or 200 mg kg^−1 bw i.p. 30 min before 10,000 lux for 30 min; day 7
Procedure: Abca4^−/−Rdh8^−/− [42] mice with a 129 Sv/Ev or C57BL/6 mixed background were used for light-induced retinal degeneration assays. […] Male and female C57BL/6 mice (Jackson Laboratory, Bar Harbor, ME) at 6 weeks of age were used to test the effects of YC-001 treatment on the retinoid cycle and bw as well as to determine parenterally administrated YC-001 entering the eyes. YC-001 was dissolved in DMSO at 80–160 mg mL^−1, and the solution was provided to mice by i.p. injection. All mice were housed and maintained in a 12 h light (≤10 lux)/12 h dark cycle in the Animal Resource Center at the School of Medicine, CWRU. […]
Retinal degeneration was initiated by exposing Abca4^−/−Rdh8^−/− mice for 30 min to white light with an intensity of 10,000 lux (150-W spiral lamp, Hampton Bay, Home Depot, Atlanta, GA USA)[43]. […] Retinal structures were analyzed by SD-OCT seven days after bright light exposure. […]
To assess the effect of YC-001 treatment on Abca4^−/−Rdh8^−/− mice following bright light-induced retinal degeneration, we performed ultrahigh-resolution SD-OCT (Bioptigen, Morrisville, NC) for in vivo imaging of mouse retinas. […] To measure changes to photoreceptors in the retinas challenged with bright light and assess the effect of YC-001 on retinal protection, the thickness of the ONL was measured along the scanned SD-OCT image at 8 points from the nasal to temporal end of the retina. […]

[2] = system: C57BL/6 mice; test: Toxicity by daily i.p. injections, survival, behavior and body weight; format: in vivo; conditions: 200 and 100 mg kg^−1 bw daily i.p., day 14 to 38, vs DMSO
Procedure: To estimate the long-term toxicity of YC-001 in mice, we administered YC-001 to C57BL/6 mice by daily i.p. injections from Day 14 to 38 after birth with one of two doses, either 100 mg kg^−1 or 200 mg kg^−1 bw. Equivalent volumes of DMSO were injected into control groups. Body weights of treated mice were measured daily. Each dosage group contained three mice including males and females.

[3] = molecular target: T1, human rod opsin C110Y (Homo sapiens, UniProt P08100, C110Y); test: Cell-surface immunostain of rod opsin mutant in transfected NIH3T3 cells; format: cell-based; conditions: 10 µM, 24 h
T1 construct: expressed in transfected cells; host or cells: NIH3T3 cells, transient transfection with pcDNA3.1-hOpsin mutant
Procedure: (§1) Human rhodopsin cDNA was placed into the pcDNA3.1(+) vector (pcDNA3.1-hOpsin). Site-directed mutagenesis was performed following the QuickChange II site-directed mutagenesis kit (Agilent Technologies Inc.). Primers for the following mutations were as follows: T4R-forward, 5′-[…]-3′; T4R-reverse, 5′-[…]-3′; P53R-forward, 5′-[…]-3′; P53R-reverse, 5′-[…]-3′; G106R-forward, 5′-[…]-3′; G106R-reverse, 5′-[…]-3′; C110Y-forward, 5′-[…]-3′; C110Y-reverse, 5′-[…]-3′; D190N-forward, 5′-[…]-3′; D190N-reverse, 5′-[…]-3′; P267L-forward, 5′-[…]-3′; P267L-reverse, 5′-[…]-3′. DNA vectors with rhodopsin mutations were confirmed by Sanger sequencing. After NIH3T3 cells were transfected with pcDNA3.1-hOpsin or its mutants for 24 h, these cells were resuspended and seeded into a 96-well plate with an optic bottom (Corning). […] Each condition was repeated in three wells. The treated plate was covered in tin foil and incubated at 37 °C with 5% CO2 for 24 h. Cells were then immunostained with 50 µg mL^−1 Alexa488-conjugated B6-30 anti-rhodopsin antibody. Cells were not exposed to detergents so that cell membranes were kept intact and only rhodopsin on the cell surface was immunostained. Alexa 488 fluorescence was imaged by the ImageExpress (Molecular Devices) high-content imager with a ×20 objective.

[4] = molecular target: T2, human rod opsin D190N (Homo sapiens, UniProt P08100, D190N); test: as above; format: cell-based; conditions: 10 µM, 24 h
T2 construct: expressed in transfected cells; host or cells: NIH3T3 cells, transient transfection with pcDNA3.1-hOpsin mutant
Procedure: as §1

[5] = molecular target: T3, human rod opsin G106R (Homo sapiens, UniProt P08100, G106R); test: as above; format: cell-based; conditions: 10 µM, 24 h
T3 construct: expressed in transfected cells; host or cells: NIH3T3 cells, transient transfection with pcDNA3.1-hOpsin mutant
Procedure: as §1

[6] = molecular target: T4, human rod opsin P267L (Homo sapiens, UniProt P08100, P267L); test: as above; format: cell-based; conditions: 10 µM, 24 h
T4 construct: expressed in transfected cells; host or cells: NIH3T3 cells, transient transfection with pcDNA3.1-hOpsin mutant
Procedure: as §1

[7] = molecular target: T5, human rod opsin P53R (Homo sapiens, UniProt P08100, P53R); test: as above; format: cell-based; conditions: 10 µM, 24 h
T5 construct: expressed in transfected cells; host or cells: NIH3T3 cells, transient transfection with pcDNA3.1-hOpsin mutant
Procedure: as §1

[8] = parameters: method as in PubChem database, CID 2377702; conditions: ref PubChem database, CID 2377702; cited from earlier work

With `O=C1OCC(c2ccc(Cl)s2)=C1c1cccs1` [YC-001] the “protection of the ONL from light-induced damage” value [1] was “dose-dependent protection of the ONL”, the “behavioral or bw growth changes” value [2] was “no obvious behavioral or bw growth changes” and the “cell-surface staining of C110Y rod opsin” value [3] was “not P53R or C110Y mutants increased significantly”. For the same compound, the “cell-surface staining of D190N rod opsin” value [4] was “increased significantly”, the “cell-surface staining of G106R rod opsin” value [5] was “increased significantly” and the “cell-surface staining of P267L rod opsin” value [6] was “increased significantly”. For the same compound, the “cell-surface staining of P53R rod opsin” value [7] was “not P53R or C110Y mutants increased significantly” and the “activity in 8 other bioassays” value [8] was “no known activities”.
